{"source": "patent US9622482B2", "about": "“Methods for increasing oil palm yield” (Valent BioSciences Corporation, priority 2014, dated 2017)", "key": {"oil palm fruit [1]": {"test_system": "oil palm fruit", "details": "postharvest application, detached bunches; cited from earlier work"}, "oil palm fruit [2]": {"test_system": "oil palm fruit", "details": "preharvest application to attached bunches; cited from earlier work"}, "oil palm": {"test_system": "oil palm", "assay": "Pre-harvest bunch-directed spray on oil palm, fruit abscission (cumulative loose fruit and loose mass)", "format": "in vivo, oil palm (cross between Compact and Ghana)", "details": "for % Difference with UTC (Cumulative Loose Fruit) / % Difference with UTC (Cumulative Loose Mass) / Cumulative Loose Mass / Cumulative Loose Fruit: single spray 100 mL/bunch; for % Difference with UTC (Cumulative Loose Fruit) / % Difference with UTC (Cumulative Loose Mass) / Cumulative Loose Mass: 14 days; for Cumulative Loose Fruit: counted for 14 days", "procedure": "A study was conducted in a plantation in Costa Rica to compare the effects of single bunch-directed applications of: (1) untreated control (water sprayed); (2) AVG at 500 ppm active ingredient (a.i.); (3) 240 ppm a.i. of STS; (4) 720 ppm a.i. of STS; (5) 2,200 ppm a.i. of STS; and (6) 6,600 ppm a.i. of STS. In this study, AVG was provided in a formulation as AVG-HCl at a concentration of 20%. STS was prepared using a 100 mM sodium thiosulfate treatment. For each treatment, 23 palms were randomly selected covering about 15 hectares. The variety of plants used was a cross between Compact and Ghana. The plants were three years old at the time of treatment. A CO2 sprayer was used to spray all treatments (100 mL/bunch) to bunches with 1 to 4 loose fruits. The time required to spray each bunch was about 8 seconds at 20 psi using a 2.0 full cone nozzle. The treatments were applied once per bunch. Ten and thirteen bunches per treatment were sprayed on Apr. 15 and 22, 2015, respectively. Cumulative loose fruit (CLF) and cumulative loose mass (CLM) counts were determined on a daily basis for 14 days with the exception of day 4 and day 9 (for second spray only) and day 11 (after initial spray only) as measure to objectively quantify fruit abscission. An electronic balance was used to weigh all fruit. All loose fruit on the bunch, branches and on the ground was counted and weighed."}, "[3]": {"details": "240 to 6,600 ppm a.i., overall statement"}}, "data": [{"molecule": "NOCC(=O)O", "note": "[AOA, aminooxyacetic acid]", "values": [{"measurement": "abscission of oil palm fruit", "setting": "oil palm fruit [1]", "result": "delayed or suppressed abscission"}]}, {"molecule": "O=P(O)(O)CCCl", "note": "[ethephon, 2-chloroethyl phosphonic acid]", "values": [{"measurement": "increase of oil content", "setting": "oil palm fruit [2]", "result": 7, "unit": "%"}]}, {"molecule": "NCCO/C=C/[C@H](N)C(=O)O", "note": "[AVG, aminoethyoxyvinylglycine, reference compound]", "values": [{"measurement": "% Difference with UTC (Cumulative Loose Fruit)", "setting": "oil palm; 500 ppm a.i.", "result": 71.4, "unit": "%"}, {"measurement": "% Difference with UTC (Cumulative Loose Mass)", "setting": "oil palm; 500 ppm a.i.", "result": 70.8, "unit": "%"}, {"measurement": "Cumulative Loose Mass", "setting": "oil palm; 500 ppm a.i.", "result": 321, "unit": "g"}, {"measurement": "Cumulative Loose Fruit", "setting": "oil palm; 500 ppm a.i.", "result": 72.0}]}, {"molecule": "silverthiosulfate [STS]", "values": [{"measurement": "% Difference with UTC (Cumulative Loose Fruit)", "setting": "oil palm; 240 ppm a.i.", "result": 14.4, "unit": "%"}, {"measurement": "% Difference with UTC (Cumulative Loose Mass)", "setting": "oil palm; 240 ppm a.i.", "result": "−0.4", "unit": "%"}, {"measurement": "Cumulative Loose Mass", "setting": "oil palm; 240 ppm a.i.", "result": 1106, "unit": "g"}, {"measurement": "Cumulative Loose Fruit", "setting": "oil palm; 240 ppm a.i.", "result": 129.0}, {"measurement": "effect on cumulative loose fruit", "setting": "oil palm; [3]", "result": "did not consistently decrease"}, {"measurement": "effect on cumulative loose mass", "setting": "oil palm; [3]", "result": "did not consistently decrease"}, {"measurement": "% Difference with UTC (Cumulative Loose Fruit)", "setting": "oil palm; 720 ppm a.i.", "result": 18.7, "unit": "%"}, {"measurement": "% Difference with UTC (Cumulative Loose Mass)", "setting": "oil palm; 720 ppm a.i.", "result": 11.3, "unit": "%"}, {"measurement": "Cumulative Loose Mass", "setting": "oil palm; 720 ppm a.i.", "result": 977, "unit": "g"}, {"measurement": "Cumulative Loose Fruit", "setting": "oil palm; 720 ppm a.i.", "result": 124.7}, {"measurement": "% Difference with UTC (Cumulative Loose Fruit)", "setting": "oil palm; 2,200 ppm a.i.", "result": "−15.7", "unit": "%"}, {"measurement": "% Difference with UTC (Cumulative Loose Mass)", "setting": "oil palm; 2,200 ppm a.i.", "result": "−26.4", "unit": "%"}, {"measurement": "Cumulative Loose Mass", "setting": "oil palm; 2,200 ppm a.i.", "result": 1392, "unit": "g"}, {"measurement": "Cumulative Loose Fruit", "setting": "oil palm; 2,200 ppm a.i.", "result": 159.1}, {"measurement": "% Difference with UTC (Cumulative Loose Fruit)", "setting": "oil palm; 6,600 ppm a.i.", "result": 25.9, "unit": "%"}, {"measurement": "% Difference with UTC (Cumulative Loose Mass)", "setting": "oil palm; 6,600 ppm a.i.", "result": 7.3, "unit": "%"}, {"measurement": "Cumulative Loose Mass", "setting": "oil palm; 6,600 ppm a.i.", "result": 1020, "unit": "g"}, {"measurement": "Cumulative Loose Fruit", "setting": "oil palm; 6,600 ppm a.i.", "result": 117.5}]}]}
